PubChem BioAssay (NCI)
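Exposure lasted 48 hours, with cells grown in 96-well plates and compounds tested at five concentrations. TGI denotes the concentration required for complete inhibition of growth.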

Tests used:
Assay in all cases: NCI anticancer screen, dose series, 48 h
786-0 renal = test system: 786-0 renal
A498 renal = test system: A498 renal
A549 NSCLC = test system: A549 NSCLC
ACHN renal = test system: ACHN renal
CAKI-1 renal = test system: CAKI-1 renal
CCRF-CEM leukemia = test system: CCRF-CEM leukemia
COLO 205 colon = test system: COLO 205 colon
DLD-1 colon = test system: DLD-1 colon
DMS 114 small cell lung = test system: DMS 114 small cell lung
DMS 273 small cell lung = test system: DMS 273 small cell lung
EKVX NSCLC = test system: EKVX NSCLC
HCC-2998 colon = test system: HCC-2998 colon
HCT-116 colon = test system: HCT-116 colon
HCT-15 colon = test system: HCT-15 colon
HL-60(TB) leukemia = test system: HL-60(TB) leukemia
HOP-18 NSCLC = test system: HOP-18 NSCLC
HOP-62 NSCLC = test system: HOP-62 NSCLC
HOP-92 NSCLC = test system: HOP-92 NSCLC
HT29 colon = test system: HT29 colon
IGROV1 ovarian = test system: IGROV1 ovarian
K-562 leukemia = test system: K-562 leukemia
KM12 colon = test system: KM12 colon
KM20L2 colon = test system: KM20L2 colon
LOX IMVI melanoma = test system: LOX IMVI melanoma
LXFL 529 NSCLC = test system: LXFL 529 NSCLC
M14 melanoma = test system: M14 melanoma
M19-MEL melanoma = test system: M19-MEL melanoma
MALME-3M melanoma = test system: MALME-3M melanoma
MOLT-4 leukemia = test system: MOLT-4 leukemia
NCI-H226 lung = test system: NCI-H226 lung
NCI-H23 lung = test system: NCI-H23 lung
NCI-H460 lung = test system: NCI-H460 lung
OVCAR-3 ovarian = test system: OVCAR-3 ovarian
OVCAR-4 ovarian = test system: OVCAR-4 ovarian
OVCAR-5 ovarian = test system: OVCAR-5 ovarian
OVCAR-8 ovarian = test system: OVCAR-8 ovarian
RXF 393 renal = test system: RXF 393 renal
SF-268 CNS = test system: SF-268 CNS
SF-295 CNS = test system: SF-295 CNS
SF-539 CNS = test system: SF-539 CNS
SK-MEL-2 melanoma = test system: SK-MEL-2 melanoma
SK-MEL-28 melanoma = test system: SK-MEL-28 melanoma
SK-MEL-5 melanoma = test system: SK-MEL-5 melanoma
SK-OV-3 ovarian = test system: SK-OV-3 ovarian
SN12C renal = test system: SN12C renal
SNB-19 CNS = test system: SNB-19 CNS
SNB-75 CNS = test system: SNB-75 CNS
SNB-78 CNS = test system: SNB-78 CNS
SR leukemia = test system: SR leukemia
SW-620 colon = test system: SW-620 colon
TK-10 renal = test system: TK-10 renal
U251 CNS = test system: U251 CNS
UACC-257 melanoma = test system: UACC-257 melanoma
UACC-62 melanoma = test system: UACC-62 melanoma
UO-31 renal = test system: UO-31 renal
XF 498 CNS = test system: XF 498 CNS
DU-145 prostate = test system: DU-145 prostate
NCI-H522 lung = test system: NCI-H522 lung
RPMI-8226 leukemia = test system: RPMI-8226 leukemia

Measured: TGI

Cc1cc(C)nc(NS(=O)(=O)c2ccc(Nc3c4ccccc4nc4c(C(=O)N5CCN(CCO)CC5)cccc34)cc2)n1
> 100 µM: 786-0 renal | A498 renal | A549 NSCLC | ACHN renal | CAKI-1 renal | CCRF-CEM leukemia | COLO 205 colon | DLD-1 colon | DMS 114 small cell lung | DMS 273 small cell lung | EKVX NSCLC | HCC-2998 colon | HCT-116 colon | HCT-15 colon | HL-60(TB) leukemia | HOP-18 NSCLC | HOP-62 NSCLC | HOP-92 NSCLC | HT29 colon | IGROV1 ovarian | K-562 leukemia | KM12 colon | KM20L2 colon | LOX IMVI melanoma | LXFL 529 NSCLC | M14 melanoma | M19-MEL melanoma | MALME-3M melanoma | MOLT-4 leukemia | NCI-H226 lung | NCI-H23 lung | NCI-H460 lung | OVCAR-3 ovarian | OVCAR-4 ovarian | OVCAR-5 ovarian | OVCAR-8 ovarian | RXF 393 renal | SF-268 CNS | SF-295 CNS | SF-539 CNS | SK-MEL-2 melanoma | SK-MEL-28 melanoma | SK-MEL-5 melanoma | SK-OV-3 ovarian | SN12C renal | SNB-19 CNS | SNB-75 CNS | SNB-78 CNS | SR leukemia | SW-620 colon | TK-10 renal | U251 CNS | UACC-257 melanoma | UACC-62 melanoma | UO-31 renal | XF 498 CNS

C=C(CN(C)C)C(=O)c1ccc(C(=O)C(=C)CN(C)C)cc1
> 100 µM: 786-0 renal | A498 renal | A549 NSCLC | ACHN renal | CAKI-1 renal | CCRF-CEM leukemia | COLO 205 colon | DLD-1 colon | DU-145 prostate | EKVX NSCLC | HCC-2998 colon | HCT-116 colon | HCT-15 colon | HL-60(TB) leukemia | HOP-18 NSCLC | HOP-92 NSCLC | HT29 colon | IGROV1 ovarian | K-562 leukemia | KM12 colon | KM20L2 colon | LOX IMVI melanoma | LXFL 529 NSCLC | M14 melanoma | M19-MEL melanoma | MALME-3M melanoma | MOLT-4 leukemia | NCI-H226 lung | NCI-H23 lung | NCI-H460 lung | NCI-H522 lung | OVCAR-3 ovarian | OVCAR-4 ovarian | OVCAR-5 ovarian | OVCAR-8 ovarian | RPMI-8226 leukemia | RXF 393 renal | SF-268 CNS | SF-295 CNS | SF-539 CNS | SK-MEL-2 melanoma | SK-MEL-28 melanoma | SK-MEL-5 melanoma | SK-OV-3 ovarian | SN12C renal | SNB-19 CNS | SNB-75 CNS | SR leukemia | SW-620 colon | TK-10 renal | U251 CNS | UACC-257 melanoma | UACC-62 melanoma | UO-31 renal | XF 498 CNS
